Read-outs that look alike come from different tables or passages of the source. Marks after values point to notes of the source that are not given here. Numbered stars: 1 amine (or outer) side, 2 acyl side, 3 side chain; on linkers, the order of the positions; unused ones are H or OH. Square brackets hold non-standard residues; d marks the D form. Peptide text beside a SMILES is read from it. * marks the point of attachment. X3 = O=C(c1c(OCCN[*:1])c(-c2ccccc2)nc2ccccc12)[*:2]; X1 = O=C1[C@@H](N[*:1])Cc2ccccc2CN1CCC(=O)[*:2]; NH(1S-phenylpropyl) = CC[C@H](N*)c1ccccc1; Dmt = Cc1cc(O)cc(C)c1C[C@H](N)C(=O)O; 4Amb = NCc1ccc(C(=O)O)cc1; Ac5c = NC1(C(=O)O)CCCC1; X2 = C(CN*)CN1CCOCC1
Key:
[1] = target: T1, human recombinant KOR (Homo sapiens, UniProt P41145); experiment: Opioid receptor radioligand binding assay, KOR
T1 construct: expressed in transfected cells; host or cells: CHO cells (gift from Prof. Girolamo Calo', Ferrara University)
T1 sequence (P41145 whole entry): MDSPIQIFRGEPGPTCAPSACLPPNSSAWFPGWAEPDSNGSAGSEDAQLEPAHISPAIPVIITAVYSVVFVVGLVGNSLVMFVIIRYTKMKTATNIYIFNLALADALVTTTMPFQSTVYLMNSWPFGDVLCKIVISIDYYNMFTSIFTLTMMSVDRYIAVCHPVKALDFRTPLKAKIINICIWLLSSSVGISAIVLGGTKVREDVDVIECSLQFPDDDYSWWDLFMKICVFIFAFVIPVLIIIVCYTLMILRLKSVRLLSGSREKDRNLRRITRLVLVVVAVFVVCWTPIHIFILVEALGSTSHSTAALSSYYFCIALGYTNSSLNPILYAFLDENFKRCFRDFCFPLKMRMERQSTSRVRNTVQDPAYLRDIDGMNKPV

[2] = target: T2, human recombinant MOR (Homo sapiens, UniProt P35372); experiment: Calcium mobilization assay, CHO MOR cells with Gαqi5; format: cell-based; details: for reduction in potency at MOR compared to dermorphin / reduction in potency at MOR compared to opioid parent pharmacophore KGOP01 / EC50: calcium mobilization; for EC50: CHO MOR Gαqi5, maximum tested concentration 10 µM, read-out: MOR EC50 ± SEM; for MOR α ± SEM: intrinsic activity: Emax of ligand / Emax of dermorphin
T2 construct: expressed in transfected cells; host or cells: CHO cells (gift from Prof. Girolamo Calo', Ferrara University)
T2 sequence (P35372 whole entry): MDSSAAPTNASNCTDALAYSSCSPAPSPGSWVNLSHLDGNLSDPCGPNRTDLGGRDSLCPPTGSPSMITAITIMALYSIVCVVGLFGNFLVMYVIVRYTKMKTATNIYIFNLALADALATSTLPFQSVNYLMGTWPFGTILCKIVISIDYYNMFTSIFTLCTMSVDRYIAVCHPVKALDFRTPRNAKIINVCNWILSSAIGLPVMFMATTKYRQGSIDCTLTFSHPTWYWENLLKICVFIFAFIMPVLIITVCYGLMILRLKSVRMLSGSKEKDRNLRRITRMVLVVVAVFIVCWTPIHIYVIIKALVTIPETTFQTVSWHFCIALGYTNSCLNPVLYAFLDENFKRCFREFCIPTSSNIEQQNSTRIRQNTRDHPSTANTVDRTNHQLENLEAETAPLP

[3] = target: T3, NK2 (h) (Homo sapiens, UniProt P21452); experiment: NK2 radioligand binding assay (Eurofins)
T3 construct: host or cells: CHO cells
T3 sequence (P21452 1-398): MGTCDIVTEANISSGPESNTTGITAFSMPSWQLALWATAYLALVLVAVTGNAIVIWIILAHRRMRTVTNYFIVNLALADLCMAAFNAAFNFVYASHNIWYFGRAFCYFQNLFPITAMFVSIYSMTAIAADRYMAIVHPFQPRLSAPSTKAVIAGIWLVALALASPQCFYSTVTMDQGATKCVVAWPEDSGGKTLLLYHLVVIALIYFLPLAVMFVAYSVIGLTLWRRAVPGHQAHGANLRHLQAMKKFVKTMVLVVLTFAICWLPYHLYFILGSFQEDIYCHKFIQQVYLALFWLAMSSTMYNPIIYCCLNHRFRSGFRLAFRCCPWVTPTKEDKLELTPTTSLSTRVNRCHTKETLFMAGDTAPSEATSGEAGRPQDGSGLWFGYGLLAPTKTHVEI

[4] = target: T2, human recombinant MOR; experiment: Opioid receptor radioligand binding assay, MOR
[5] = target: T4, human recombinant DOR (Homo sapiens, UniProt P41143); experiment: Calcium mobilization assay, CHO DOR cells with GαqG66Di5; format: cell-based; details: for decreased potency at DOR compared to reference DPDPE / EC50 / DOR EC50 ± SEM (nM): calcium mobilization; for EC50 / DOR EC50 ± SEM (nM): CHO DOR GαqG66Di5, maximum tested concentration 10 µM; for EC50: read-out: DOR EC50 ± SEM; for DOR α ± SEM: intrinsic activity: Emax of ligand / Emax of DPDPE
T4 construct: expressed in transfected cells; host or cells: CHO cells (gift from Prof. Girolamo Calo', Ferrara University)
T4 sequence (P41143 whole entry): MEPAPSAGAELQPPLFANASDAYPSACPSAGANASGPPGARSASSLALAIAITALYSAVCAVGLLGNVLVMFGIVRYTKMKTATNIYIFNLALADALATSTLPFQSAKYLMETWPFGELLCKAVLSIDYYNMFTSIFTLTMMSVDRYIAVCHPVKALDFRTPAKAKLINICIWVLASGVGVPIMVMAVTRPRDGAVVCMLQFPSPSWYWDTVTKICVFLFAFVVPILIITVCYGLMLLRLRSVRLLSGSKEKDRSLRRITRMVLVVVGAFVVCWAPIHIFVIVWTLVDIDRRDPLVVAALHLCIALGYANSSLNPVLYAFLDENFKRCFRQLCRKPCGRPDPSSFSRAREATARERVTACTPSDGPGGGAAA

[6] = target: T4, human recombinant DOR; experiment: Opioid receptor radioligand binding assay, DOR
[7] = target: T1, human recombinant KOR; experiment: Calcium mobilization assay, CHO KOR cells with Gαqi5; format: cell-based; details: for KOR α ± SEM: intrinsic activity: Emax of ligand / Emax of dynorphin A
[8] = target: T5, NK3 (h) (Homo sapiens, UniProt P29371); experiment: NK3 radioligand binding assay (Eurofins)
T5 construct: host or cells: CHO cells
T5 sequence (P29371 1-465): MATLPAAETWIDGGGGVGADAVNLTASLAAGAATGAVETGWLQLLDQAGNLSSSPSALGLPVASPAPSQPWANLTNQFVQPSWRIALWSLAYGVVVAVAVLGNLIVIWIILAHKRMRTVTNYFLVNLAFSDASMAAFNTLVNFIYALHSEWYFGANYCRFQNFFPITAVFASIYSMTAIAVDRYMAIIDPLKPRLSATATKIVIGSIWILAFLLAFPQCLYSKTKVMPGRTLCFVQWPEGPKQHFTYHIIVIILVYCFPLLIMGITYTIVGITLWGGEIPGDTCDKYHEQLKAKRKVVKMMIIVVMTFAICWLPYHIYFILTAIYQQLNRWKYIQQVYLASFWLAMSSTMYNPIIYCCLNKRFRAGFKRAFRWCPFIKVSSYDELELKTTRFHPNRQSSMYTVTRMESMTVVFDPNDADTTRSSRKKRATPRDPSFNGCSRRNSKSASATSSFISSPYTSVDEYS

[9] = target: T4, human recombinant DOR; design: method as in PMID 23007594; details: intrinsic activity; data from reported literature ref 30; cited from earlier work
[10] = calcium mobilization, CHO KOR Gαqi5, maximum tested concentration 10 µM, crc = concentration-response curve
[11] = [3H]DAMGO displacement, CHO cell membranes, human recombinant receptor
[12] = [3H][Ile5,6]deltorphin-2 displacement, CHO cell membranes, human recombinant receptor
[13] = [125I]NKA 0.1 nM, human recombinant (CHO cells), 60 min RT, n.c. = less than 25% inhibitory binding at highest validated test concentrations, read-out: IC50 [nM] ± SEM, NK2 receptor
[14] = [125I]NKA 0.1 nM, human recombinant (CHO cells), Cheng Prusoff, n.c. = not calculated, read-out: Ki [nM] ± SEM, NK2 receptor

Compound | Ki [1] | EC50 [2] | MOR α ± SEM [2] | Ki [4] | EC50 [5] | DOR α ± SEM [5] | Ki [6] | KOR α ± SEM [7] | KOR EC50 ± SEM (nM) [7, 10] | further results
Cc1cc(O)cc(C)c1C[C@H](N)C(=O)N[C@H](CCCNC(=N)N)C(=O)N[C@H]1Cc2ccccc2CN(CCC(=O)N[C@@H](CC(=O)O)C(=O)N[C@@H](Cc2ccc(O)cc2)C(=O)N[C@H](Cc2c[nH]c3ccccc23)C(=O)N[C@H](C(=O)N[C@H](Cc2c[nH]c3ccccc23)C(=O)N[C@H](Cc2c[nH]c3ccccc23)C(=O)N[C@@H](CCCCN)C(N)=O)C(C)C)C1=O [SBL-OPNK-5] (H-[Dmt][dR][X1]DY[dW]V[dW][dW]K-NH2) | 90.7 ± 0.94 nM | 10.2 ± 0.67 nM | 0.91 ± 0.04 | 2.11 ± 0.04 nM | 118 ± 26 nM | 1.01 ± 0.03 | 10 ± 3.2 nM | 0.44 ± 0.06 | – | reduction in potency at MOR compared to dermorphin [2]: 2 fold; reduction in potency at MOR compared to opioid parent pharmacophore KGOP01 [2]: 18 fold; IC50 [3]: 3 ± 1 nM; Ki [3]: 1.6 ± 1.1 nM; decreased potency at DOR compared to reference DPDPE [5]: 2–3 fold; EC50 ([7]; calcium mobilization, CHO KOR Gαqi5, maximum tested concentration 10 µM, crc = concentration-response curve, read-out: KOR EC50 ± SEM): 415 ± 133 nM
Cc1cc(O)cc(C)c1C[C@H](N)C(=O)N[C@H](CCCNC(=N)N)C(=O)N[C@H]1Cc2ccccc2CN(CCC(N)=O)C1=O [KGOP01, H-Dmt-D-Arg-Aba-βAla-NH2, reference compound] | 72.7 ± 4.32 nM | 0.54 ± 0.06 nM | – | – | 75.6 ± 13.1 nM | – | 4.88 ± 0.11 nM | – | crc incomplete | –
CC[C@H](NC(=O)c1c(OCCNC(=O)CCN2Cc3ccccc3C[C@H](NC(=O)[C@@H](CCCNC(=N)N)NC(=O)[C@@H](N)Cc3c(C)cc(O)cc3C)C2=O)c(-c2ccccc2)nc2ccccc12)c1ccccc1 [SBL-OPNK-9] | 97.1 ± 4.72 nM | 31.3 ± 7.39 nM | 0.83 ± 0.05 | 5.43 ± 0.08 nM | 84.1 ± 18 nM | 1.02 ± 0.03 | 6.57 ± 4.02 nM | crc incomplete | crc incomplete | IC50 [8]: 6.7 ± 2.4 nM; Ki [8]: 3.6 ± 2.5 nM; increase of NK3 affinity and potency compared to reference SB 222200 [8]: 1.5 fold; decreased potency at DOR compared to reference DPDPE [5]: 2–3 fold
Cc1cc(O)cc(C)c1C[C@H](N)C(=O)N[C@H](CCCNC(=N)N)C(=O)N[C@@H](Cc1ccccc1)C(=O)N[C@@H](CCCCN)C(=O)NCc1ccc(C(=O)NC2(C(=O)N[C@H](Cc3ccccc3)C(=O)NCCCN3CCOCC3)CCCC2)cc1 [SBL-OPNK-6] (H-[Dmt][dR]FK[4Amb][Ac5c][dF]-X2) | 100 ± 1.16 nM | 988 ± 82 nM | 0.67 ± 0.05 | 74.93 ± 0.15 nM | – | inactive | 22400 nM | crc incomplete | crc incomplete | Ki [nM] ± SEM MOR [4, 11]: Weak binding; DOR EC50 ± SEM (nM) [5]: inactive; Ki [nM] ± SEM DOR [6, 12]: did not bind efficiently
CC[C@H](NC(=O)c1c(OCCNC(=O)[C@H](CCCCN)NC(=O)[C@H](Cc2ccccc2)NC(=O)[C@@H](CCCNC(=N)N)NC(=O)[C@@H](N)Cc2c(C)cc(O)cc2C)c(-c2ccccc2)nc2ccccc12)c1ccccc1 [SBL-OPNK-8] (H-[Dmt][dR]FK[X3]-{NH(1S-phenylpropyl)}) | 104 ± 6.12 nM | 916 ± 106 nM | 0.65 ± 0.02 | 120 ± 5.25 nM | – | inactive | 4570 nM | crc incomplete | crc incomplete | Ki [nM] ± SEM MOR [4, 11]: Weak binding; DOR EC50 ± SEM (nM) [5]: inactive; Ki [nM] ± SEM DOR [6, 12]: did not bind efficiently
CC(=O)N[C@@H](CC(=O)O)C(=O)N[C@@H](Cc1ccc(O)cc1)C(=O)N[C@H](Cc1c[nH]c2ccccc12)C(=O)N[C@H](C(=O)N[C@H](Cc1c[nH]c2ccccc12)C(=O)N[C@H](Cc1c[nH]c2ccccc12)C(=O)N[C@@H](CCCCN)C(N)=O)C(C)C [SBL-OPNK-1] (Ac-DY[dW]V[dW][dW]K-NH2) | – | – | – | – | – | – | – | – | – | IC50 [3, 13]: 33.6 ± 11.9 nM; Ki [3, 14]: 18.3 ± 13 nM; lower NK2 binding affinity compared to the reference compound ([3]; reference [Nle10]-NKA(4-10)): about 17 fold
CC[C@H](NC(=O)c1c(OCCNC(C)=O)c(-c2ccccc2)nc2ccccc12)c1ccccc1 [SBL-OPNK-3] | – | – | – | – | – | – | – | – | – | IC50 ([8]; [3H]SR 142801 0.4 nM, human recombinant (CHO cells), 120 min RT, read-out: IC50 [nM] ± SEM, NK3 receptor): 20.3 ± 7.2 nM; Ki ([8]; [3H]SR 142801 0.4 nM, human recombinant (CHO cells), Cheng Prusoff, read-out: Ki [nM] ± SEM, NK3 receptor): 11 ± 7.8 nM
Cc1cc(O)cc(C)c1C[C@H](N)C(=O)N[C@H](CCCNC(=N)N)C(=O)N[C@H]1Cc2ccccc2CN(CCC(=O)NCc2ccc(C(=O)NC3(C(=O)N[C@H](Cc4ccccc4)C(=O)NCCCN4CCOCC4)CCCC3)cc2)C1=O [SBL-OPNK-7] (H-[Dmt][dR][X1][4Amb][Ac5c][dF]-X2) | – | 13.1 ± 1.84 nM | 0.89 ± 0.04 | – | 66.5 ± 11.7 nM | 1.02 ± 0.02 | – | inactive | completely inactive | Ki ([1]; [3H]nor-BNI displacement, CHO cell membranes, human recombinant receptor, read-out: Ki [nM] ± SEM KOR): 53 ± 3.2 nM; reduction in potency at MOR compared to dermorphin [2]: 3 fold; reduction in potency at MOR compared to opioid parent pharmacophore KGOP01 [2]: 24 fold; IC50 [3, 13]: 0.63 ± 0.22 nM; Ki [3, 14]: 0.34 ± 0.24 nM; Ki ([4]; [3H]DAMGO displacement, CHO cell membranes, human recombinant receptor, read-out: Ki [nM] ± SEM MOR): 2.83 ± 0.02 nM; decreased potency at DOR compared to reference DPDPE [5]: 2–3 fold; Ki ([6]; [3H][Ile5,6]deltorphin-2 displacement, CHO cell membranes, human recombinant receptor, read-out: Ki [nM] ± SEM DOR): 3.26 ± 0.09 nM
CC1(C)SSC(C)(C)[C@@H](NC(=O)[C@@H](N)Cc2ccc(O)cc2)C(=O)NCC(=O)N[C@@H](Cc2ccccc2)C(=O)N[C@H]1C(=O)O [DPDPE, reference compound] | – | – | – | – | – | – | – | inactive | inactive | –
Cc1cc(O)cc(C)c1C[C@H](N)C(=O)N[C@H](CCCNC(=N)N)C(=O)N[C@@H](Cc1ccccc1)C(=O)N[C@@H](CCCCN)C(=O)N[C@@H](CC(=O)O)C(=O)N[C@@H](Cc1ccc(O)cc1)C(=O)N[C@H](Cc1c[nH]c2ccccc12)C(=O)N[C@H](C(=O)N[C@H](Cc1c[nH]c2ccccc12)C(=O)N[C@H](Cc1c[nH]c2ccccc12)C(=O)N[C@@H](CCCCN)C(N)=O)C(C)C [SBL-OPNK-4] (H-[Dmt][dR]FKDY[dW]V[dW][dW]K-NH2) | 90.5 ± 5.69 nM | 815 ± 145 nM | 0.74 ± 0.05 | 1.02 ± 0.03 nM | – | inactive | 1250 nM | crc incomplete | crc incomplete | DOR EC50 ± SEM (nM) [5]: inactive; Ki [nM] ± SEM DOR [6, 12]: did not bind efficiently
CC[C@H](C)[C@H](NC(=O)[C@H](CCCNC(=N)N)NC(=O)[C@H](CCCNC(=N)N)NC(=O)[C@H](CC(C)C)NC(=O)[C@H](Cc1ccccc1)NC(=O)CNC(=O)CNC(=O)[C@@H](N)Cc1ccc(O)cc1)C(=O)N[C@@H](CCCNC(=N)N)C(=O)N1CCC[C@H]1C(=O)N[C@@H](CCCCN)C(=O)N[C@@H](CC(C)C)C(=O)N[C@@H](CCCCN)C(=O)N[C@@H](Cc1c[nH]c2ccccc12)C(=O)N[C@@H](CC(=O)O)C(=O)N[C@@H](CC(N)=O)C(=O)N[C@@H](CCC(N)=O)C(=O)O [dynorphin A] | – | – | – | – | – | – | – | – | – | DOR α ± SEM [9]: 0.99 ± 0.04 ^a

Reference: article PMC8434392, “Harnessing the Anti-Nociceptive Potential of NK2 and NK3 Ligands in the Design of New Multifunctional μ/δ-Opioid Agonist–Neurokinin Antagonist Peptidomimetics” (Molecules, 2021)
